Data on 18 compounds can be found in patent US20260265244A1, “HETEROCYCLIC COMPOUNDS AS STING ANTAGONISTS” (Boehringer Ingelheim International GmbH, priority 2022, published 2026).

SMILES strings stand for the structures.

For this assay, the target named is T1, cGAMP binding domain of wild-type (GRR) human STING, residues 155-341 (Homo sapiens, UniProt Q86WV6, H232R).
T1 construct: His-TEV-hSTING (WT); TEV protease cleavage site (N); made in house; host or cells: E. coli BL21 DE3
The experiment in a line: Increase of stability of STING protein against thermal denaturation, Differential Scanning Fluorimetry (DSF). As to the method: Dye fluorescence is quenched in aqueous environment and increases upon association of the dye with the hydrophobic parts of the unfolding protein. […] The inflection point of the curve represents the “melting” temperature of the protein (Tm) which is calculated numerically using the Boltzmann equation.
Method: The thermal stability of the STING protein was measured using a specific expression construct of the cGAMP binding domain of wild-type (GRR) human STING comprising residues 155-341 and a N-terminal 8×His-tag (SEQ ID NO: 3) in assay buffer containing 20 mM Tris, 150 mM NaCl at pH7.5.
The assay uses Hard-Shell® PCR Plates 384-Well CLR/WHT (Catalog #HSP3805, BIO-RAD), Microseal® ‘B’ Adhesive Seals for PCR Plates (Catalog #MSB-1001, BIO-RAD) and was run on a CFX384 Real-Time System (Bio-Rad).
A DMSO stock solution of SYPRO orange (SIGMA S5692-500UL) was prepared.
Compound stock solutions (10 mM in DMSO) were diluted 1:2 in DMSO to an intermediate compound concentration of 5 mM and then further diluted 1:40 in assay buffer resulting in a compound concentration of 125 μM and 2.5% DMSO.
Fluorescent dye stock solution (5000×SYPRO Orange) was then mixed with target protein and buffer to a concentration of 15 uM Protein and 25×SYPRO Orange. 2 ul of this protein-dye-mixture was added to 8 ul compound solution. Final volume was 10 uL. 3-6 well positions were used as negative control (protein with 2% DMSO). The plates were prepared for duplicate measurement and centrifuged for 2 min at 1000 g. In the measurement, 160 cycles of 0.5° C. were used (temperature ramp 15 s/cycle, 15° C. to 95° C.).
Final Assay concentrations for compound characterization were as follows: 100 uM compound, 3 uM target protein, 5×SYPRO Orange, 2% DMSO in 10 ul. All dispensing steps were performed using a HamiltonStar pipetting robot (Hamilton).
Dissociation curves were processed in Bio-Rad CFX Manager. Peak type was set to “negative”. Compound codes for screen were assigned in the plate layout.
Two replicates of TM measurements were averaged, and the standard deviation was calculated. In cases of SD>1.5° C. the measurement was repeated.
The melting point (Tm) obtained for STING protein alone was subtracted from T obtained for protein incubated with ligand to generate ΔTm values.
Protein production and purification: The protein used for the biophysical experiments was a recombinant human STING protein comprising its cytosolic ectodomain. A codon optimized DNA sequence (for expression in Escherichia coli) encoding amino acid residues 155 to 341 (Swiss Prot Q86WV6) of human STING (WT) was synthesized by GeneArt (Regensburg, Germany) and inserted into a pET17b E. coli expression vector. The protein construct encodes an N-terminal 8×His-tag (SEQ ID NO: 3) followed by tobacco etch virus protease (TEV) cleavage site and the above STING gene sequence. The resulting protein sequence for the used STING variant is listed below:
For expression of recombinant human STING above construct was transformed into E. coli BL21 DE3 strain and grown in shake flasks in LB-medium at 37° C. Expression was induced by addition of isopropyl β-D-1-thiogalactopyranoside to a final concentration of 1 mM and cultures shaken overnight. Cell pellets were centrifuged and stored at −70° C. until further use. Protein was purified by cell thawing in lysis buffer (20 mM TRIS-HCl, pH 8, 300 mM NaCl, 2 mM mercaptoethanol, 20 mM imidazole, Complete Protease Inhibitor (Roche) and DNase (Roche)), followed by metal affinity purification using Ni-NTA resins and elution buffer consisting of 20 mM TRIS-HCl, pH 8, 300 mM NaCl, 2 mM mercaptoethanol, 300 mM imidazole and size exclusion chromatography in running buffer (20 mM TRIS-HCl, pH 8, 100 mM NaCl, 2 mM DTT). The peak fraction was collected and concentrated to 2.5 mg/mL.
(In general: Differential scanning fluorimetry follows unfolding on heating by fluorescence.)

T1 sequence (Q86WV6 with tags, fused parts or gaps H232R): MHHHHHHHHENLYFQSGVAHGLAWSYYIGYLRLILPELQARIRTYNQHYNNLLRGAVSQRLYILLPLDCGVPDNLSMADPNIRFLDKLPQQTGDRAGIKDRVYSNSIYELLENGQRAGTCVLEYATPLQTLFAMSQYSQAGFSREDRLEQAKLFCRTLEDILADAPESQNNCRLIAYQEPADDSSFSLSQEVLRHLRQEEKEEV

The compound `Cn1c(-c2cc3cn(CCN4CCOCC4)nc3nc2C2CC2)nc(-c2cccc3nn(C[C@H](O)c4ccccc4)cc23)c1C1CC1` [Example 10, (1R)-2-[4-(5-cyclopropyl-2-{6-cyclopropyl-2-[2-(morpholin-4-yl)ethyl]-2H-pyrazolo[3,4-b]pyridin-5-yl}-1-methyl-1H-imidazol-4-yl)-2H-indazol-2-yl]-1-phenylethan-1-ol] had a DSF of 30 K.
The figure for `Cn1cc2cc(-c3nc(-c4cccc5nn(C[C@H](O)c6ccccc6)cc45)c(C4CC4)n3C)c(C3CC3(F)F)nc2n1` (stereo partly drawn) [Example 110, (1R)-2-(4-{5-cyclopropyl-2-[6-(2,2-difluorocyclopropyl)-2-methyl-2H-pyrazolo[3,4-b]pyridin-5-yl]-1-methyl-1H-imidazol-4-yl}-2H-indazol-2-yl)-1-phenylethan-1-ol] is 29 K; for `CNCc1nc2nn(C)cc2cc1-n1nc(-c2cccc3nn(C[C@H](O)c4ccccc4)cc23)c(C(C)C)c1C` [Example 42, (1R)-2-[4-(5-methyl-1-{2-methyl-6-[(methylamino)methyl]-2H-pyrazolo[3,4-b]pyridin-5-yl}-4-(propan-2-yl)-1H-pyrazol-3-yl)-2H-indazol-2-yl]-1-phenylethan-1-ol] it is 26 K; for `CCc1nc2nn(C)cc2cc1-c1nc(-c2cccc3nn(C[C@H](F)c4ccc(Cl)cc4)cc23)c(C2CC2)n1C` [Example 72, 2-[(2R)-2-(4-chlorophenyl)-2-fluoroethyl]-4-(5-cyclopropyl-2-{6-ethyl-2-methyl-2H-pyrazolo[3,4-b]pyridin-5-yl}-1-methyl-1H-imidazol-4-yl)-2H-indazole] it is 30 K.
The figure for `COc1ccc(Cn2cc3cc(-c4nc(-c5cccc6nn(C[C@H](O)c7ccccc7)cc56)c(C5CC5)n4C)c(C4CC4)nc3n2)cc1` [Example 9, (1R)-2-[4-(5-cyclopropyl-2-{6-cyclopropyl-2-[(4-methoxyphenyl)methyl]-2H-pyrazolo[3,4-b]pyridin-5-yl}-1-methyl-1H-imidazol-4-yl)-2H-indazol-2-yl]-1-phenylethan-1-ol] is 33 K; for `Cc1nc2nn(CCO)cc2cc1-n1nc(-c2cccc3nn(C[C@H](O)c4ccccc4)cc23)c(C(C)C)c1C` [Example 37, (1R)-2-(4-{1-[2-(2-hydroxyethyl)-6-methyl-2H-pyrazolo[3,4-b]pyridin-5-yl]-5-methyl-4-(propan-2-yl)-1H-pyrazol-3-yl}-2H-indazol-2-yl)-1-phenylethan-1-ol] it is 27 K.
Under `Cn1cc2cc(-c3nc(-c4cccc5nn(C[C@H](O)c6ccc(O)cc6)cc45)c(C4CC4)n3C)c(C3CC3)nc2n1` [Example 55, 4-[(1R)-2-[4-(5-cyclopropyl-2-{6-cyclopropyl-2-methyl-2H-pyrazolo[3,4-b]pyridin-5-yl}-1-methyl-1H-imidazol-4-yl)-2H-indazol-2-yl]-1-hydroxyethyl]phenol] stands 29 K.
`Cc1nc2nn(C)cc2cc1-n1nc(-c2cccc3nn(C[C@H](OCC4CC4)c4ccccc4)cc23)c(C(C)C)c1C` [Example 63, 2-[(2R)-2-(cyclopropylmethoxy)-2-phenylethyl]-4-(1-{2,6-dimethyl-2H-pyrazolo[3,4-b]pyridin-5-yl}-5-methyl-4-(propan-2-yl)-1H-pyrazol-3-yl)-2H-indazole] came in with a DSF of 22 K.
The figure for `Cn1cc2cc(-c3nc(-c4cccc5nn(C[C@H](O)c6ccc(OC7COC7)cc6)cc45)c(C4CC4)n3C)c(C3CC3)nc2n1` [Example 69, (1R)-2-[4-(5-cyclopropyl-2-{6-cyclopropyl-2-methyl-2H-pyrazolo[3,4-b]pyridin-5-yl}-1-methyl-1H-imidazol-4-yl)-2H-indazol-2-yl]-1-[4-(oxetan-3-yloxy)phenyl]ethan-1-ol] is 29 K; for `COCCn1cc2cc(-n3nc(-c4cccc5nn(C[C@H](O)c6ccccc6)cc45)c(C(C)C)c3C)c(C)nc2n1` [Example 16, (1R)-2-(4-{1-[2-(2-methoxyethyl)-6-methyl-2H-pyrazolo[3,4-b]pyridin-5-yl]-5-methyl-4-(propan-2-yl)-1H-pyrazol-3-yl}-2H-indazol-2-yl)-1-phenylethan-1-ol] it is 28 K; for `Cn1c(-c2cc3cn(CCCN4CCCC4=O)nc3nc2C2CC2)nc(-c2cccc3nn(C[C@H](O)c4ccccc4)cc23)c1C1CC1` [Example 28, 1-{3-[6-cyclopropyl-5-(5-cyclopropyl-4-{2-[(2R)-2-hydroxy-2-phenylethyl]-2H-indazol-4-yl}-1-methyl-1H-imidazol-2-yl)-2H-pyrazolo[3,4-b]pyridin-2-yl]propyl}pyrrolidin-2-one] it is 31 K.
Under `Cc1nc2nn(CCCN3CCCC3=O)cc2cc1-n1nc(-c2cccc3nn(C[C@H](O)c4ccccc4)cc23)c(C(C)C)c1C` [Example 21, 1-{3-[5-(3-{2-[(2R)-2-hydroxy-2-phenylethyl]-2H-indazol-4-yl}-5-methyl-4-(propan-2-yl)-1H-pyrazol-1-yl)-6-methyl-2H-pyrazolo[3,4-b]pyridin-2-yl]propyl}pyrrolidin-2-one] stands 30 K.
Under `Cc1c(C(C)C)c(-c2cccc3nn(C[C@H](O)c4ccccc4)cc23)nn1-c1cc2cn(C)nc2nc1C1CCOCC1` [Example 73, (1R)-2-(4-{5-methyl-1-[2-methyl-6-(oxan-4-yl)-2H-pyrazolo[3,4-b]pyridin-5-yl]-4-(propan-2-yl)-1H-pyrazol-3-yl}-2H-indazol-2-yl)-1-phenylethan-1-ol] stands 28 K.
For the compound `Cc1c(C(C)C)c(-c2cccc3nn(C[C@H](O)c4ccccc4)cc23)nn1-c1cc2cn(C)nc2nc1CO` [Example 106, (1R)-2-(4-{1-[6-(hydroxymethyl)-2-methyl-2H-pyrazolo[3,4-b]pyridin-5-yl]-5-methyl-4-(propan-2-yl)-1H-pyrazol-3-yl}-2H-indazol-2-yl)-1-phenylethan-1-ol], the DSF was found to be 28 K.
The figure for `Cc1c(C(C)C)c(-c2cccc3nn(C[C@H](O)c4ccccc4)cc23)nn1-c1cc2cn(C)nc2nc1CC1CC1` [Example 54, (1R)-2-(4-{1-[6-(cyclopropylmethyl)-2-methyl-2H-pyrazolo[3,4-b]pyridin-5-yl]-5-methyl-4-(propan-2-yl)-1H-pyrazol-3-yl}-2H-indazol-2-yl)-1-phenylethan-1-ol] is 28 K; for `CC(C)c1nc2nn(C)cc2cc1-c1nc(-c2cccc3nn(C[C@H](O)c4ccccc4)cc23)c(C2CC2)n1C` [Example 97, (1R)-2-(4-{5-Cyclopropyl-1-methyl-2-[2-methyl-6-(propan-2-yl)-2H-pyrazolo[3,4-b]pyridin-5-yl]-1H-imidazol-4-yl}-2H-indazol-2-yl)-1-phenylethan-1-ol] it is 31 K; for `Cc1c(C(C)C)c(-c2cccc3nn(C[C@H](O)c4ccccc4)cc23)nn1-c1cc2cn(C)nc2nc1C(C)(C)C` [Example 113, (1R)-2-[4-(1-{6-tert-butyl-2-methyl-2H-pyrazolo[3,4-b]pyridin-5-yl}-5-methyl-4-(propan-2-yl)-1 H-pyrazol-3-yl)-2H-indazol-2-yl]-1-phenylethan-1-ol] it is 23 K.
The compound `Cn1cc2cc(-c3nc(-c4cccc5nn(C[C@H](O)c6ccccc6)cc45)c(C4CC4)n3C)c(OC(F)F)cc2n1` [Example 34, (1R)-2-(4-{5-cyclopropyl-2-[6-(difluoromethoxy)-2-methyl-2H-indazol-5-yl]-1-methyl-1H-imidazol-4-yl}-2H-indazol-2-yl)-1-phenylethan-1-ol] returned a DSF of 29 K.
